{"source": "patent US10258036B2", "about": "“Extract of Euodia suaveolens Scheff, repellent compositions and use thereof” (CHARABOT, priority 2009, dated 2019)", "key": {"Aedes aegypti [1]": {"tested_on": "Aedes aegypti", "conditions": "DEET at a dose of 23.8 percent, laboratory; cited from earlier work"}, "[2]": {"conditions": "in vivo; cited from earlier work"}, "Aedes aegypti [3]": {"tested_on": "Aedes aegypti", "experiment": "Repellent efficacy test on hairless mouse coated with test product, exposed to female mosquitoes", "format": "in vivo", "conditions": "concentration of 3% or even less of synthetic evodone", "description": "In this respect, the invention is illustrated by the following efficacy tests, carried out in the laboratory, where the formulas are not degraded through the effects of abrasion, exudation, sunlight, temperature or even swimming in the sea. […] The tests are carried out on female Aedes aegypti mosquitoes aged 6 to 10 days having undergone a prior 24-hour period of fasting (no blood meal) in order to increase their aggressiveness. […] 30 minutes after product application, the mouse is introduced into a cage containing approximately 200 female mosquitoes (prior removal of the males using a food gradient). The test lasts 5 minutes and during this period the number of mosquitoes having landed on the mouse (“landing” effect: number of mosquitoes that land on the treated area and leave without biting) and the number of effective bites, are recorded. The test is stopped after 5 effective bites (“stop” in the Tables below). […] Based on the outcome of the first repetition, repetitions are performed at time intervals of 30 minutes in order to provide a more accurate limit for the duration of protection. During and between the runs, the mice are maintained in a “tropical” like atmosphere under controlled conditions at 27+/−1° C. and 70+/−5% relative humidity. The cages are changed upon each unit test and placed 3 meters apart. […]"}, "mosquitoes": {"tested_on": "mosquitoes", "conditions": "cited from earlier work"}}}
{"compound": "CCN(CC)C(=O)c1cccc(C)c1", "note": "[DEET, N,N-diethyl-3-methylbenzamide]", "values": [{"measurement": "protection period", "setting": "Aedes aegypti [1]", "result": "more than 5 hours"}, {"measurement": "share of a dose absorbed through the skin", "setting": "[2]", "result": 30, "unit": "%"}]}
{"compound": "Cc1coc2c1C(=O)C[C@@H](C)C2", "note": "[evodone, (6S)3-6 dimethyl 6,7 dihydro 5H benzofuran-4-one]", "values": [{"measurement": "repellent efficacy compared with DEET", "setting": "Aedes aegypti [3]", "result": "as effective as a concentration of 30% of DEET"}]}
{"compound": "CCC(C)OC(=O)N1CCCCC1CCO", "note": "(centres unmarked) [icaridin, 1-methylpropylester]", "values": [{"measurement": "concentration with efficacy comparable to that of 30% DEET", "setting": "mosquitoes", "result": 19.2, "unit": "%"}]}
{"compound": "p menthane 3.8 diol [citriodiol]", "values": [{"measurement": "maximum persistence of protection", "setting": "mosquitoes", "result": "≤ 6", "unit": "h"}]}
